In patent publication US20250122218A1, “MODULATORS OF CYSTIC FIBROSIS TRANSMEMBRANE CONDUCTANCE REGULATOR” (Vertex Pharmaceuticals Incorporated, priority 2022, published 2025):

What follows are compounds tested against T1, CFTR in F508del/MF-HBE cells (Homo sapiens, UniProt P13569, DEL508-508) (assay: Ussing chamber assay of CFTR-mediated short-circuit currents (identification of potentiator compounds)). Conditions: potentiator incubated 18-24 hours at 37° C. in combination with 10 μM corrector, in the presence of 20% human serum, CFTR-mediated ISC.
T1 construct: human bronchial epithelial (HBE) cells derived from CF subjects heterozygous for F508del and a minimal function CFTR mutation; endogenous in cells; host or cells: primary human bronchial epithelial cells from CF subjects (F508del/MF-HBE)
T1 sequence (P13569 with tags, fused parts or gaps DEL508-508): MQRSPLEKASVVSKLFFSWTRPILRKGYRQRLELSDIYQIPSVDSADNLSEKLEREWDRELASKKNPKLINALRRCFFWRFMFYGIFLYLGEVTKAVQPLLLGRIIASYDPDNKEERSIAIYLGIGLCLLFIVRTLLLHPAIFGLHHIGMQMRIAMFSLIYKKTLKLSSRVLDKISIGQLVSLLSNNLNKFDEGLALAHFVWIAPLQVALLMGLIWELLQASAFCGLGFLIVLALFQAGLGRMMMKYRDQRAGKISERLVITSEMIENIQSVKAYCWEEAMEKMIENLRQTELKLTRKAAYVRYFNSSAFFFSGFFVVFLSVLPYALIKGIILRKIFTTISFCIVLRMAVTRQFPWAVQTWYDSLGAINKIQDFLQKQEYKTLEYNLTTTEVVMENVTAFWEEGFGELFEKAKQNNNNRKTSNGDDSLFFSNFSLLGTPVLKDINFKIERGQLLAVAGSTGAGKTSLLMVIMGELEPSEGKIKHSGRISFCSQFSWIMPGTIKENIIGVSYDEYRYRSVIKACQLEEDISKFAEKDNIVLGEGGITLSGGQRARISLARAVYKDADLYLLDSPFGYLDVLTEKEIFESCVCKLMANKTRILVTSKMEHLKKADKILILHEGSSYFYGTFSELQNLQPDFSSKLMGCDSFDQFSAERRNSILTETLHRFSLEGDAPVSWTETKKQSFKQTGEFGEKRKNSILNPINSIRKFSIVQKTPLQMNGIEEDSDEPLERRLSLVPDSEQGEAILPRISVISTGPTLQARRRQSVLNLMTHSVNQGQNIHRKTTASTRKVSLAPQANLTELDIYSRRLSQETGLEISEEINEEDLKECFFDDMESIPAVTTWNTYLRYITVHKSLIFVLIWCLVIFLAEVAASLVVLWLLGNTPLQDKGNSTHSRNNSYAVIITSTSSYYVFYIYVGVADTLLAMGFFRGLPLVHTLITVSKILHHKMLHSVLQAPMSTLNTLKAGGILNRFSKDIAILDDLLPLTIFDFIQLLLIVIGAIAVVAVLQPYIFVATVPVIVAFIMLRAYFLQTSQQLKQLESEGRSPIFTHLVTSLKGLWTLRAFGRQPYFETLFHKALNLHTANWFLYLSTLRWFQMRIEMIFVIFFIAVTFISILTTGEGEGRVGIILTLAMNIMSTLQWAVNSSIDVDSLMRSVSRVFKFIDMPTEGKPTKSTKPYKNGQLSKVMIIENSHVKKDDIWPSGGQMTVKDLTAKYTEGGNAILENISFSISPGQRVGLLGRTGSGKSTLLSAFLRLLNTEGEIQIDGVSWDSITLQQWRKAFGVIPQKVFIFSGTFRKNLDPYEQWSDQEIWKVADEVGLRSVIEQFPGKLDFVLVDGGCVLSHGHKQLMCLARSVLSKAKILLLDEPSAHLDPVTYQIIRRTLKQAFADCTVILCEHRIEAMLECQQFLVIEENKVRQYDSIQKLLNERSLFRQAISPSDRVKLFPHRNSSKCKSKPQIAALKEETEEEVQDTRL
Format: cell-based
Summary of the method: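 Short-circuit current was measured in Ussing chambers at 37° C, Vhold 0 mV, 30 μM apical amiloride. CFTR current was defined as the forskolin (20 μM) response relative to the current remaining after BPO/GlyH-101/inhibitor 172 (20 μM each). Before recording, cells had 18-24 h exposure to test potentiators with 10 μM corrector compound in 20% human serum.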

EC50, < 500 nM:
Nc1cc(C(F)(F)F)c2nc1-c1nnc(o1)[C@@](O)(C(F)(F)F)CCCCCN(Cc1ccc(C3CC3)cc1)C2=O [Compound 217, (6R)-17-amino-12-[(4-cyclopropylphenyl)methyl]-6-hydroxy-6,15-bis(trifluoromethyl)-19-oxa-3,4,12,18-tetrazatricyclo [12.3.1.12,5] nonadeca-1(18),2,4,14,16-pentaen-13-one]
CC(C)(C1CC1)N1CCCCC[C@](O)(C(F)(F)F)C2=NN=C(O2)c2nc(c(C(F)(F)F)cc2N)C1=O [Compound 218, (6R)-17-amino-12-(1-cyclopropyl-1-methyl-ethyl)-6-hydroxy-6,15-bis(trifluoromethyl)-19-oxa-3,4,12,18-tetrazatricyclo [12.3.1.12,5] nonadeca-1(18),2,4,14,16-pentaen-13-one]
CC1(N2CCCCC[C@](O)(C(F)(F)F)C3=NN=C(O3)c3nc(c(C(F)(F)F)cc3N)C2=O)CCCCC1 [Compound 219, (6R)-17-amino-6-hydroxy-12-(1-methylcyclohexyl)-6,15-bis(trifluoromethyl)-19-oxa-3,4,12,18-tetrazatricyclo [12.3.1.12,5] nonadeca-1(18),2,4,14,16-pentaen-13-one]
Nc1cc(C(F)(F)F)c2nc1-c1nnc(o1)[C@@](O)(C(F)(F)F)CCCCCN(Cc1cccc(C3(C(F)(F)F)CC3)c1)C2=O [Compound 220, (6R)-17-amino-6-hydroxy-6,15-bis(trifluoromethyl)-12-[[3-[1-(trifluoromethyl)cyclopropyl]phenyl]methyl]-19-oxa-3,4,12,18-tetrazatricyclo [12.3.1.12,5] nonadeca-1(18),2,4,14,16-pentaen-13-one]
CC(C)(C)c1cccc(CN2CCCCC[C@](O)(C(F)(F)F)C3=NN=C(O3)c3nc(c(C(F)(F)F)cc3N)C2=O)c1 [Compound 221, (6R)-17-amino-12-[(3-tert-butylphenyl)methyl]-6-hydroxy-6,15-bis(trifluoromethyl)-19-oxa-3,4,12,18-tetrazatricyclo [12.3.1.12,5] nonadeca-1(18),2,4,14,16-pentaen-13-one]
CC(C)(c1cccc(CN2CCCCC[C@](O)(C(F)(F)F)C3=NN=C(O3)c3nc(c(C(F)(F)F)cc3N)C2=O)c1)C(F)(F)F [Compound 222, (6R)-17-amino-6-hydroxy-12-[[3-(2,2,2-trifluoro-1,1-dimethyl-ethyl)phenyl]methyl]-6,15-bis(trifluoromethyl)-19-oxa-3,4,12,18-tetrazatricyclo [12.3.1.12,5] nonadeca-1(18),2,4,14,16-pentaen-13-one]
Nc1cc(C(F)(F)F)c2nc1-c1nnc(o1)[C@@](O)(C(F)(F)F)CCCCCN(Cc1cccc(OCC3(C(F)(F)F)CC3)c1)C2=O [Compound 223, (6R)-17-amino-6-hydroxy-6,15-bis(trifluoromethyl)-12-[[3-[[1-(trifluoromethyl)cyclopropyl]methoxy]phenyl]methyl]-19-oxa-3,4,12,18-tetrazatricyclo [12.3.1.12,5] nonadeca-1(18),2,4,14,16-pentaen-13-one]
Nc1cc(C(F)(F)F)c2nc1-c1nnc(o1)[C@@](O)(C(F)(F)F)CCCCCN(Cc1cccc(C3CC(F)(F)C3)c1)C2=O [Compound 224, (6R)-17-amino-12-[[3-(3,3-difluorocyclobutyl)phenyl]methyl]-6-hydroxy-6,15-bis(trifluoromethyl)-19-oxa-3,4,12,18-tetrazatricyclo [12.3.1.12,5] nonadeca-1(18),2,4,14,16-pentaen-13-one]
Cc1cc(C)cc(CN2CCCCC[C@](O)(C(F)(F)F)C3=NN=C(O3)c3nc(c(C(F)(F)F)cc3N)C2=O)c1 [Compound 225, (6R)-17-amino-12-[(3,5-dimethylphenyl)methyl]-6-hydroxy-6,15-bis(trifluoromethyl)-19-oxa-3,4,12,18-tetrazatricyclo [12.3.1.12,5] nonadeca-1(18),2,4,14,16-pentaen-13-one]
CC(C)(C)C1(N2CCCCC[C@](O)(C(F)(F)F)C3=NN=C(O3)c3nc(c(C(F)(F)F)cc3N)C2=O)CC1 [Compound 226, (6R)-17-amino-12-(1-tert-butylcyclopropyl)-6-hydroxy-6,15-bis(trifluoromethyl)-19-oxa-3,4,12,18-tetrazatricyclo [12.3.1.12,5] nonadeca-1(18),2,4,14,16-pentaen-13-one]
Nc1cc(C(F)(F)F)c2nc1-c1nnc(o1)[C@@](O)(C(F)(F)F)CCCCCN(Cc1cccc(C3CCC3)c1)C2=O [Compound 229, (6R)-17-amino-12-[(3-cyclobutylphenyl)methyl]-6-hydroxy-6,15-bis(trifluoromethyl)-19-oxa-3,4,12,18-tetrazatricyclo [12.3.1.12,5] nonadeca-1(18),2,4,14,16-pentaen-13-one]
COc1cc(CN2CCCCC[C@](O)(C(F)(F)F)C3=NN=C(O3)c3nc(c(C(F)(F)F)cc3N)C2=O)ccc1C(F)(F)F [Compound 230, (6R)-17-amino-6-hydroxy-12-[[3-methoxy-4-(trifluoromethyl)phenyl]methyl]-6,15-bis(trifluoromethyl)-19-oxa-3,4,12,18-tetrazatricyclo [12.3.1.12,5] nonadeca-1(18),2,4,14,16-pentaen-13-one]
Nc1cc(C(F)(F)F)c2nc1-c1nnc(o1)[C@@](O)(C(F)(F)F)CCCCCN(Cc1cccc(C3CC3)c1)C2=O [Compound 231, (6R)-17-amino-12-[(3-cyclopropylphenyl)methyl]-6-hydroxy-6,15-bis(trifluoromethyl)-19-oxa-3,4,12,18-tetrazatricyclo [12.3.1.12,5] nonadeca-1(18),2,4,14,16-pentaen-13-one]
Nc1cc(C(F)(F)F)c2nc1-c1nnc(o1)[C@@](O)(C(F)(F)F)CCCCCN(Cc1cccc(C34CC(C3)C4)c1)C2=O [Compound 240]
Nc1cc(C(F)(F)F)c2nc1-c1nnc(o1)[C@@](O)(C(F)(F)F)CCCCCN(Cc1cccc(C(F)F)c1)C2=O [Compound 241, (6R)-17-amino-12-[[3-(difluoromethyl)phenyl]methyl]-6-hydroxy-6,15-bis(trifluoromethyl)-19-oxa-3,4,12,18-tetrazatricyclo [12.3.1.12,5] nonadeca-1(18),2,4,14,16-pentaen-13-one]
Nc1cc(C(F)(F)F)c2nc1-c1nnc(o1)[C@@](O)(C(F)(F)F)CCCCCN(CC1CCC(F)(F)CC1)C2=O [Compound 242, (6R)-17-amino-12-[(4,4-difluorocyclohexyl)methyl]-6-hydroxy-6,15-bis(trifluoromethyl)-19-oxa-3,4,12,18-tetrazatricyclo [12.3.1.12,5] nonadeca-1(18),2,4,14,16-pentaen-13-one]
Nc1cc(C(F)(F)F)c2nc1-c1nnc(o1)[C@@](O)(C(F)(F)F)CCCCCN(CC1CC(F)(F)C1)C2=O [Compound 243, (6R)-17-amino-12-[(3,3-difluorocyclobutyl)methyl]-6-hydroxy-6,15-bis(trifluoromethyl)-19-oxa-3,4,12,18-tetrazatricyclo [12.3.1.12,5] nonadeca-1(18),2,4,14,16-pentaen-13-one]
CC(C)(O)c1cccc(CN2CCCCC[C@](O)(C(F)(F)F)C3=NN=C(O3)c3nc(c(C(F)(F)F)cc3N)C2=O)c1 [Compound 244, (6R)-17-amino-6-hydroxy-12-[[3-(1-hydroxy-1-methyl-ethyl)phenyl]methyl]-6,15-bis(trifluoromethyl)-19-oxa-3,4,12,18-tetrazatricyclo [12.3.1.12,5] nonadeca-1(18),2,4,14,16-pentaen-13-one]
Nc1cc(C(F)(F)F)c2nc1-c1nnc(o1)[C@@](O)(C(F)(F)F)CCCCCN(CC1C3(CC3)C13CC3)C2=O [Compound 245, (6R)-17-amino-12-(dispiro[2.0.24.13]heptan-7-ylmethyl)-6-hydroxy-6,15-bis(trifluoromethyl)-19-oxa-3,4,12,18-tetrazatricyclo [12.3.1.12,5] nonadeca-1(18),2,4,14,16-pentaen-13-one]
Nc1cc(C(F)(F)F)c2nc1-c1nnc(o1)[C@@](O)(C(F)(F)F)CCCCCN(CC1C3CCCCC31)C2=O (stereo partly drawn) [Compound 246, (6R)-17-amino-6-hydroxy-12-(norcaran-7-ylmethyl)-6,15-bis(trifluoromethyl)-19-oxa-3,4,12,18-tetrazatricyclo [12.3.1.12,5] nonadeca-1(18),2,4,14,16-pentaen-13-one]
Nc1cc(C(F)(F)F)c2nc1-c1nnc(o1)[C@@](O)(C(F)(F)F)CCCCCN(Cc1cc(F)cc(C3CC3)c1)C2=O [Compound 247, (6R)-17-amino-12-[(3-cyclopropyl-5-fluoro-phenyl)methyl]-6-hydroxy-6,15-bis(trifluoromethyl)-19-oxa-3,4,12,18-tetrazatricyclo [12.3.1.12,5] nonadeca-1(18),2,4,14,16-pentaen-13-one]
Nc1cc(C(F)(F)F)c2nc1-c1nnc(o1)[C@@](O)(C(F)(F)F)CCCCCN(Cc1cc(F)cc(C3CCC3)c1)C2=O [Compound 248, (6R)-17-amino-12-[(3-cyclobutyl-5-fluoro-phenyl)methyl]-6-hydroxy-6,15-bis(trifluoromethyl)-19-oxa-3,4,12,18-tetrazatricyclo [12.3.1.12,5] nonadeca-1(18),2,4,14,16-pentaen-13-one]
